target: human H3 receptor (Homo sapiens, UniProt Q9Y5N1); assay: H3 Receptor Binding (Human) Method 2, [125I]-iodoproxyfan competitive radioligand binding; parameters: expressed in transfected cells; conditions: not given
Sequence (Q9Y5N1 whole entry): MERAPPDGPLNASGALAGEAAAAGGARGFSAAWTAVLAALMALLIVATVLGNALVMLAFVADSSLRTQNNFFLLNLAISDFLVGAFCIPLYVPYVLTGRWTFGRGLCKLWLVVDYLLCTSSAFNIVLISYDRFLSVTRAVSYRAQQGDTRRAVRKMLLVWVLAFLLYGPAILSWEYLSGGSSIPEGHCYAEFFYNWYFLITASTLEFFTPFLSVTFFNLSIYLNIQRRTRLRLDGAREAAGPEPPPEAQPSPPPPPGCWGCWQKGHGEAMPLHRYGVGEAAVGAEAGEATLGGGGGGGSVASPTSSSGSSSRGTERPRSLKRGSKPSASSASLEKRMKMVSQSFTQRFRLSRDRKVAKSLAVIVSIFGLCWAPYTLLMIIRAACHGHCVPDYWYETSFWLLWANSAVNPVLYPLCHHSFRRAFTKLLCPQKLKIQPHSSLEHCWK

| Ki [nM] | Compound |
| --- | --- |
| 5 | O=C([C@H]1C[C@H](Oc2ccccn2)CN1)N1CCCN(C2CCC2)CC1 [Example 98, (2R,4S)-2-(4-Cyclobutyl-[1,4]diazepane-1-carbonyl)-4-(pyridin-2-yloxy)-pyrrolidine] |
| 21 | CC(=O)N1C[C@@H](Oc2cccc(F)c2)C[C@H]1C(=O)N1CCCN(C2CCC2)CC1 [Example 115, (2S,4S)-1-[2-(4-Cyclobutyl-[1,4]diazepane-1-carbonyl)-4-(3-fluoro-phenoxy)-pyrrolidin-1-yl]-ethanone] |
| 379 | CC(=O)N1C[C@H](Oc2cccc(F)c2)C[C@H]1C(=O)N1CCCN(C2CCC2)CC1 [Example 129, (2S,4R)-1-[2-(4-Cyclobutyl-[1,4]diazepane-1-carbonyl)-4-(3-fluoro-phenoxy)-pyrrolidin-1-yl]-ethanone] |

same assay, conditions: Method 2; SK-N-MC cell membranes; [125I]-iodoproxyfan 1 nM; apparent Ki; free base or hydrochloride salt; average of results; read-out: Human H3 Ki

| Ki [nM] | Compound |
| --- | --- |
| 13 | O=C([C@H]1C[C@H](Oc2ccc(F)cc2)CN1C1CC1)N1CCCN(C2CCC2)CC1 [Example 142, (2R,4S)-1-Cyclopropyl-2-(4-cyclobutyl-[1,4]diazepane-1-carbonyl)-4-(4-fluoro-phenoxy)-pyrrolidine] |
| 201 | O=C(N1CCCN(C2CCC2)CC1)[C@@]1(Cc2ccc(C(F)(F)F)cc2)CCCN1 [Example 170, (2S)-(4-Cyclobutyl-[1,4]diazepan-1-yl)-[2-(4-trifluoromethyl-benzyl)-pyrrolidin-2-yl]-methanone] |

same assay, conditions: read-out: Human H3 Ki

| Compound | Ki [nM] |
| --- | --- |
| CC(=O)N1C[C@H](Cc2cccc(F)c2)C[C@H]1C(=O)N1CCCN(C2CCC2)CC1 [Example 182] | 1160 |
| CC(C)(C)OC(=O)N1C[C@H](Oc2ccc(Cl)cc2)C[C@@H]1C(=O)N1CCCN(C2CCC2)CC1 [Example 57, (2R,4R)-4-(4-Chloro-phenoxy)-2-(4-cyclobutyl-[1,4]diazepane-1-carbonyl)-pyrrolidine-1-carboxylic acid tert-butyl ester] | 93 |
| CCC(=O)N1C[C@@H](Oc2cccc(F)c2)C[C@@H]1C(=O)N1CCCN(C2CCC2)CC1 [Example 125, (2R,4S)-1-[2-(4-Cyclobutyl-[1,4]diazepane-1-carbonyl)-4-(3-fluoro-phenoxy)-pyrrolidin-1-yl]-propan-1-one] | 3 |
| Cc1cnc(F)cc1O[C@@H]1CN[C@@H](C(=O)N2CCCN(C3CCC3)CC2)C1 [Example 99, (2R,4S)-2-(4-Cyclobutyl-[1,4]diazepane-1-carbonyl)-4-(2-fluoro-5-methyl-pyridin-4-yloxy)-pyrrolidine] | 2 |
| CC(=O)N1C[C@@H](Oc2cccnc2)C[C@@H]1C(=O)N1CCCN(C2CCC2)CC1 [Example 133, (2R,4S)-1-[2-(4-Cyclobutyl-[1,4]diazepane-1-carbonyl)-4-(Pyridin-3-yloxy)-pyrrolidin-1-yl]-ethanone] | 3 |
| O=C([C@H]1C[C@H](Oc2ccc(F)cc2)CN1C1CCC1)N1CCCN(C2CCC2)CC1 [Example 111, (2R,4S)-1-Cyclobutyl-2-(4-cyclobutyl-[1,4]diazepane-1-carbonyl)-4-(4-fluoro-phenoxy)-pyrrolidine] | 17 |
| CC(=O)N1C[C@H](Cc2ccc(F)cc2)C[C@H]1C(=O)N1CCCN(C2CCC2)CC1 [Example 181] | 2110 |
| CC(C)(C)OC(=O)N1C[C@H](Oc2ccccc2)C[C@H]1C(=O)N1CCCN(C2CCC2)CC1 [Example 48, (2S,4R)-2-(4-Cyclobutyl-[1,4]diazepane-1-carbonyl)-4-phenoxy-pyrrolidine-1-carboxylic acid tert-butyl ester] | 14 |

Now from value to compound:

| Ki [nM] | Compound |
| --- | --- |
| 8 | Cc1cnc(O[C@H]2C[C@H](C(=O)N3CCCN(C4CCC4)CC3)N(C(=O)OC(C)(C)C)C2)cc1I [Example 52, (2R,4S)-2-(4-Cyclobutyl-[1,4]diazepane-1-carbonyl)-4-(4-iodo-5-methyl-pyridin-2-yloxy)-pyrrolidine-1-carboxylic acid tert-butyl ester] |
| 18 | CC(C)C(=O)N1C[C@@H](Oc2cccc(F)c2)C[C@@H]1C(=O)N1CCCN(C2CCC2)CC1 [Example 123, (2R,4S)-1-[2-(4-Cyclobutyl-[1,4]diazepane-1-carbonyl)-4-(3-fluoro-phenoxy)-pyrrolidin-1-yl]-2-methyl-propan-1-one] |
| 17 | CC(C)(C)OC(=O)N1C[C@@H](Sc2ccc(F)cc2)C[C@@H]1C(=O)N1CCCN(C2CCC2)CC1 [Example 61, (2R,4S)-2-(4-Cyclobutyl-[1,4]diazepane-1-carbonyl)-4-(4-fluoro-phenylsulfanyl)-pyrrolidine-1-carboxylic acid tert-butyl ester] |
| 27 | O=C(N1CCCN(C2CCC2)CC1)[C@@]1(Cc2ccc(F)cc2)CCCN1 [Example 169, (2S)-(4-Cyclobutyl-[1,4]diazepan-1-yl)-[2-(4-fluoro-benzyl)-pyrrolidin-2-yl]-methanone] |
| 53 | CC(C)(C)OC(=O)N1C[C@@H](O)C[C@@H]1C(=O)N1CCCN(C2CCC2)CC1 [Example 4, (2R,4S)-2-(4-Cyclobutyl-[1,4]diazepane-1-carbonyl)-4-hydroxy-pyrrolidine-1-carboxylic acid tert-butyl Ester] |
| 2 | CC(C)(C)OC(=O)N1C[C@@H](Oc2ccc(F)cc2)C[C@@H]1C(=O)N1CCCN(C2CCCC2)CC1 [Example 35, (2R,4S)-2-(4-Cyclopentyl-[1,4]diazepane-1-carbonyl)-4-(4-fluoro-phenoxy)-pyrrolidine-1-carboxylic acid tert-butyl ester] |
| 348 | O=C([C@@H]1C[C@@H](Cc2cccc(F)c2)CN1)N1CCCN(C2CCC2)CC1 [Example 179, (2S,4R)-(4-Cyclobutyl-[1,4]diazepan-1-yl)-[4-(3-fluoro-benzyl)-pyrrolidin-2-yl]-methanone] |
| 8 | CC(C)(C)OC(=O)N1C[C@@H](OCc2cccc(F)c2)C[C@@H]1C(=O)N1CCCN(C2CCC2)CC1 [Example 147, (2R,4S)-2-(4-Cyclobutyl-[1,4]diazepane-1-carbonyl)-4-(3-fluoro-benzyloxy)-pyrrolidine-1-carboxylic acid tert-butyl ester] |
| 1 | CS(=O)(=O)N1C[C@@H](Oc2ccc(F)cc2)C[C@@H]1C(=O)N1CCCN(C2CCC2)CC1 [Example 140, (2R,4S)-(4-Cyclobutyl-[1,4]diazepan-1-yl)-[4-(4-fluoro-phenoxy)-1-methanesulfonyl-pyrrolidin-2-yl]-methanone] |
| 1250 | CC(C)(C)OC(=O)N1C[C@H](O)C[C@@H]1C(=O)N1CCCN(C2CC2)CC1 [Example 5, (2R,4R)-2-(4-Cyclopropyl-[1,4]diazepane-1-carbonyl)-4-hydroxy-pyrrolidine-1-carboxylic acid tert-butyl Ester] |
| 3 | CC(C)(C)OC(=O)N1C[C@@H](Oc2ccc(C#N)cc2)C[C@@H]1C(=O)N1CCCN(C2CCCC2)CC1 [Example 36, (2R,4S)-4-(4-Cyano-phenoxy)-2-(4-cyclopentyl-[1,4]diazepane-1-carbonyl)-pyrrolidine-1-carboxylic acid tert-butyl ester] |
| 845 | CC(C)(C)OC(=O)N1CC[C@@H](Oc2cccc(F)c2)[C@H]1C(=O)N1CCCN(C2CCC2)CC1 [Example 143, (2S,3R)-2-(4-Cyclobutyl-[1,4]diazepane-1-carbonyl)-3-(3-fluoro-phenoxy)-pyrrolidine-1-carboxylic acid tert-butyl ester] |
| 160 | CC(C)(C)OC(=O)N1C[C@H](Oc2ccc(C#N)cc2)C[C@@H]1C(=O)N1CCCN(C2CCC2)CC1 [Example 60, (2R,4R)-4-(4-Cyano-phenoxy)-2-(4-cyclobutyl-[1,4]diazepane-1-carbonyl)-pyrrolidine-1-carboxylic acid tert-butyl ester] |
